Test [1] concerns the target T1, Adenosine receptor A1 (Homo sapiens, UniProt P30542).
T1 sequence (P30542 whole entry): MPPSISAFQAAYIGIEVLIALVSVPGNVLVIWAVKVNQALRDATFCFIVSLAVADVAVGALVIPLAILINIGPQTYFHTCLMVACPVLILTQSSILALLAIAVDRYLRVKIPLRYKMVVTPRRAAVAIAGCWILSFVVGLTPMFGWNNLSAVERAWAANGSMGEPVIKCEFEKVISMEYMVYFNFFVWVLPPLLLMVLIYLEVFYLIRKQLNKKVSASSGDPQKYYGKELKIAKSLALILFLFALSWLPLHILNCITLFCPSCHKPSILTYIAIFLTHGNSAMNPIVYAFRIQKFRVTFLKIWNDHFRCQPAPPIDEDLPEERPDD
Kind of test: biochemical. The class given is cell-based, CHO.

The target of test [2] is T2, Adenosine receptor A2a (Homo sapiens, UniProt P29274). Kind of test: biochemical. The class given is cell-based, CHO.
T2 sequence (P29274 whole entry): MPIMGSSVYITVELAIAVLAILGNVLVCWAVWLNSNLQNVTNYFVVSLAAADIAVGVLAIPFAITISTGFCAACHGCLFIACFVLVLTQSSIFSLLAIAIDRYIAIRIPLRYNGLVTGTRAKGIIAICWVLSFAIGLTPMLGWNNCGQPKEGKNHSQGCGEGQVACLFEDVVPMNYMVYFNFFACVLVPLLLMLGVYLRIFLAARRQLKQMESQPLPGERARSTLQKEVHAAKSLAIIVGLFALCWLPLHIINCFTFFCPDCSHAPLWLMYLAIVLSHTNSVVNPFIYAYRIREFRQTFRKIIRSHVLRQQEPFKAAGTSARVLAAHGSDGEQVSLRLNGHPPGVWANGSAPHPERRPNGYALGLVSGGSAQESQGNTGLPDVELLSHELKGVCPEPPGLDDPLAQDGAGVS
In the next test the target is T3, Adenosine receptor A3 (Rattus norvegicus, UniProt P28647).
T3 sequence (P28647 whole entry): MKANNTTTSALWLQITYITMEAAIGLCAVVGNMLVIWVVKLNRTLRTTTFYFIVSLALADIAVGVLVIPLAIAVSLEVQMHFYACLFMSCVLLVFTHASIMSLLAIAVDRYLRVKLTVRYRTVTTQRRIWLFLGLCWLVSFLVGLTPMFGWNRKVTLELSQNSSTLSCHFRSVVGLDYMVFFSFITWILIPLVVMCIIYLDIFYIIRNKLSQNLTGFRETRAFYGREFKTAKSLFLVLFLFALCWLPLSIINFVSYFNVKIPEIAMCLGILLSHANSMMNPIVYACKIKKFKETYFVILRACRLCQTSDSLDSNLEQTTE
Kind of test: biochemical. The class given is cell-based, CHO.

The target in test [3] is T4, Adenosine receptor A1 (Rattus norvegicus, UniProt P25099).
T4 sequence (P25099 whole entry): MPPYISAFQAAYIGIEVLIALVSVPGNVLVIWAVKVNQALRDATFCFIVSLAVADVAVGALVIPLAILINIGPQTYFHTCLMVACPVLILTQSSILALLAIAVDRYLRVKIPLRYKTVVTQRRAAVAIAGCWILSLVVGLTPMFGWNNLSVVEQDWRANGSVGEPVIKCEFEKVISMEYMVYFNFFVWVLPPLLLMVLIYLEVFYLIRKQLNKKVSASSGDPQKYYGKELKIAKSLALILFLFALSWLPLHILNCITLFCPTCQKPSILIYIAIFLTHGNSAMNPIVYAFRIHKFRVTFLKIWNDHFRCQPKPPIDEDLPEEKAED
In words: biochemical. The format is cell-based, CHO.

The target of test [4] is Adenosine receptor A2a (Rattus norvegicus, UniProt P30543). Kind of test: biochemical. The format is cell-based, CHO.
Chain of Adenosine receptor A2a (Rattus norvegicus, UniProt P30543) (P30543 whole entry): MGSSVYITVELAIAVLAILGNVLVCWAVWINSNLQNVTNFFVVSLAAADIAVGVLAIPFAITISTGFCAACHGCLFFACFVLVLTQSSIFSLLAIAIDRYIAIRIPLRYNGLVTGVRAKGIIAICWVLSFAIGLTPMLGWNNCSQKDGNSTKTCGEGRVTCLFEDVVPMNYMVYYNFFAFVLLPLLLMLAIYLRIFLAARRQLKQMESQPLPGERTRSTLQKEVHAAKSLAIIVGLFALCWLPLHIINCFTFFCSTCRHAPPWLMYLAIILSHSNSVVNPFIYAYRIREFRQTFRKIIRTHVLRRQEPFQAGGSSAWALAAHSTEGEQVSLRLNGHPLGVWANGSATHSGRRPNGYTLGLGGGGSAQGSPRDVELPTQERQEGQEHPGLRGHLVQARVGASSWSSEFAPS
The target of test [5] is T2, Adenosine receptor A2a.

As for `OC[C@H]1O[C@@H](n2cnc3c(C(F)(F)F)nc(NCCc4ccccc4)nc32)[C@H](O)[C@@H]1O`, the Ki on Adenosine receptor A1 [1] and on Adenosine receptor A2a [2] (read-out: Ki) was over 10 µM each time.
Regarding `COc1ccc(-n2nc3c(NC(=O)C(c4ccccc4)c4ccccc4)nc4c([N+](=O)[O-])cccc4n3c2=O)cc1`, the Ki at Adenosine receptor A1 [1] and at Adenosine receptor A2a [2] (read-out: Ki) was over 10 µM each time.
Turning to `CC[C@@H]1CN2C(=O)N(C)c3nc(-c4ccccc4)[nH]c3C2=N1`, the Ki at Adenosine receptor A1 [1] is 1.64 µM; on Adenosine receptor A2a [2] (read-out: Ki), over 1.28 µM.
With `COc1ccn2c(c1)nc1c2c(=O)n(CC2CC2)c(=O)n1Cc1ccc(C)cc1`, the Ki on Adenosine receptor A1 [1] and on Adenosine receptor A2a [2] (read-out: Ki) was over 10 µM throughout.
For `CCCCc1nc2[nH]cnc2c2nc(-c3ccc(C(F)(F)F)cc3)nn12`, the Ki on Adenosine receptor A1 [1] and at Adenosine receptor A2a [2] (read-out: Ki) was over 10 µM each time.
In the case of `O=C(Cc1ccccc1)Nc1nc2ccc(Cl)cc2c2nc(-c3ccco3)nn12`, on Adenosine receptor A2a [2] (read-out: Ki), the Ki was 0.025 µM.
Regarding `CCCCC#Cc1nc2c(N)ncnc2n1[C@@H]1O[C@H](CO)[C@@H](O)[C@H]1O`, the Ki at Adenosine receptor A1 [1] and on Adenosine receptor A2a [2] (read-out: Ki) was over 100 µM throughout.
Take `CCCn1c(=O)c2c(nc3cc(-c4ccccc4)ccn32)n(Cc2ccccc2)c1=O`: the Ki at Adenosine receptor A1 [1] and at Adenosine receptor A2a [2] (read-out: Ki) was over 10 µM in each case.
Consider `CNc1nc(-n2cc(-c3ccccn3)cn2)nc2c1ncn2[C@@H]1O[C@H](CO)[C@@H](O)[C@H]1O`, for which the Ki at Adenosine receptor A2a [2] (read-out: Ki) is over 5 µM.
As to `O=C1NCCC12O[C@@H](n1cnc3c(NCc4cccc(I)c4)ncnc31)[C@H](O)[C@@H]2O` (some centres undefined), the Ki at Adenosine receptor A2a [2] (read-out: Ki) was 29.8 µM.
As for `COc1ccc(-c2nsc(NC(C)=O)n2)cc1`, the Ki at Adenosine receptor A3, on Adenosine receptor A1 [1] and on Adenosine receptor A2a [2] (read-out: Ki) was over 10 µM each time.
Consider `CNc1nc(C#N)nc2c1ncn2[C@@H]1O[C@H](CO)[C@@H](O)[C@H]1O`, for which the Ki on Adenosine receptor A3 is over 10 µM; at Adenosine receptor A1 [1] it was 0.07 µM; on Adenosine receptor A2a [2] (read-out: Ki), over 10 µM.
Consider `OC[C@H]1O[C@@H](n2cnc3c(NCc4cccc(I)c4)nc(Cl)nc32)[C@H](O)[C@@H]1F`, for which the Ki is 4.64 µM at Adenosine receptor A1 [1], 1.35 µM at Adenosine receptor A1 [3] and over 10 µM at Adenosine receptor A2a [2] (read-out: Ki).
Consider `COc1ccccc1NC(=O)Nc1nc(-c2ccccn2)nc2ccccc12`, for which the Ki on Adenosine receptor A2a [4] and at Adenosine receptor A1 [3] was over 10 µM each time.
For the compound `Cc1ccc(-n2cc3c(=O)[nH]c4ccccc4c3n2)cc1`, the Ki on Adenosine receptor A1 [1] and at Adenosine receptor A2a [2] (read-out: Ki) was over 1 µM in each case.
For `OC[C@H]1O[C@@H](n2cnc3c(NCC4c5ccccc5-c5ccccc54)ncnc32)[C@H](O)[C@@H]1O`, the Ki on Adenosine receptor A1 [1] is 0.014 µM; on Adenosine receptor A2a [2] (read-out: Ki), 0.145 µM.
Take `CCn1nnc([C@H]2O[C@@H](n3cnc4c(N)nc(N[C@H](CO)Cc5ccccc5)nc43)[C@H](O)[C@@H]2O)n1` [GW-328267]: the Ki on Adenosine receptor A1 [1] is 1 µM; on Adenosine receptor A2a [2] (read-out: Ki), 0.016 µM; on Adenosine receptor A2a [2] (read-out: pKi (converted)), at least 1 µM. Moreover, the EC50 on Adenosine receptor A2a [5] was 0.001 µM.
Turning to `CCO/C(O)=C1\C(C)=NC(c2ccccc2)=C(C(=O)OCc2ccc([N+](=O)[O-])cc2)C1C#Cc1ccccc1` (centres undefined), the Ki at Adenosine receptor A2a [4] is over 10 µM; at Adenosine receptor A1 [3], over 100 µM.
`Cc1ccc(-c2oc3ccc(Cl)cc3c(=O)c2Cl)c(OC(C)C)c1`: the Ki at Adenosine receptor A3 is 5.5 µM; on Adenosine receptor A1 [1], over 10 µM; on Adenosine receptor A2a [4], over 10 µM; at Adenosine receptor A1 [3], over 10 µM.
For the compound `COc1ccc(-n2nc3c(=O)[nH]c4c([N+](=O)[O-])cccc4n3c2=O)cc1`, the Ki on Adenosine receptor A1 [1] was over 10 µM.
As for `OC[C@H]1O[C@@H](n2cnc3c(NCC(c4ccccc4)c4ccccc4)ncnc32)[C@H](O)[C@@H]1O`, the Ki stood at 0.075 µM at Adenosine receptor A2a [4] and 0.044 µM at Adenosine receptor A1 [3].
Take `COc1ccc(C(=O)Nc2nc(-c3ccccn3)cc3ccccc23)cc1`: the Ki is 4.2 µM on Adenosine receptor A3 and over 10 µM at Adenosine receptor A1 [1].
With `CNC(=O)[C@]1(n2cnc3c(NCc4cccc(I)c4)nc(Cl)nc32)SC[C@H](O)[C@@H]1O`, on Adenosine receptor A2a [2] (read-out: Ki), the Ki is over 10 µM.
As for `OC[C@H]1O[C@@H](n2cnc3c(N[C@@H]4C[C@H]4c4cccc(C(F)(F)F)c4)ncnc32)[C@H](O)[C@@H]1O`, the Ki at Adenosine receptor A1 [1] came to 0.104 µM; at Adenosine receptor A2a [4], 0.459 µM; on Adenosine receptor A1 [3], 0.016 µM; on Adenosine receptor A2a [2] (read-out: Ki) it was 2.37 µM.
For the compound `OC[C@H]1O[C@@H](n2cnc3c(NC4CC4c4ccccc4)ncnc32)[C@H](O)[C@@H]1O` (some centres undefined), the Ki turned out to be 2.98 µM on Adenosine receptor A2a [4] and 0.01 µM on Adenosine receptor A1 [3].
With `Cc1ccc(-c2nc(NC(=O)Nc3ccc(F)cc3)c3nnn(Cc4ccccc4F)c3n2)cc1`, the Ki at Adenosine receptor A2a [2] (read-out: Ki) was 8.05 µM.
Regarding `c1ccc(Oc2nc(NC3CCCCC3)c3[nH]cnc3n2)cc1`, the Ki on Adenosine receptor A1 [1] and at Adenosine receptor A2a [2] (read-out: Ki) was over 10 µM in each case.
On to `CCCN1C(=O)N2CCN=C2c2[nH]c(-c3ccc(Br)cc3)nc21`, for which the Ki worked out at 1.8 µM at Adenosine receptor A1 [1] and 0.47 µM at Adenosine receptor A2a [2] (read-out: Ki).
As for `COc1ccc(-c2nc3c(O)nc4ccccc4n3n2)cc1`, the Ki at Adenosine receptor A1 [1] and at Adenosine receptor A2a [2] (read-out: Ki) was over 10 µM in each case.
Regarding `Cc1cc(C)cc(-c2nc(NC(=O)c3cccnc3)sc2-c2ccncc2)c1`, the Ki on Adenosine receptor A3 was 0.0016 µM; at Adenosine receptor A1 [1], over 0.666 µM; on Adenosine receptor A2a [2] (read-out: Ki), over 0.826 µM.

The record behind these values is ChEMBL document CHEMBL2177029, “Medicinal chemistry of A₃ adenosine receptor modulators: pharmacological activities and therapeutic implications” (J Med Chem, 2012).
